{
  "source": "patent US4999374A",
  "about": "“Veterinary treatment” (priority 1987, dated 1991)",
  "key": {"T. hyodysenteriae [1]": {"tested_on": "T. hyodysenteriae", "assay": "Comparative efficacy of M139603 and monensin in experimentally infected mice (Example 2, Table 2)", "type": "in vivo, mice (strain MF-1)", "conditions": "for Mean (log10) viable treponemes per gram caecum & contents / Viable treponemes per gram caecum & contents: 5 days; for Mean (log10) viable treponemes per gram caecum & contents: group mean; for Viable treponemes per gram caecum & contents: individual mice", "from_the_text": "(§1) The infection leads to varying degrees of caecitis, the lesions of which are apparent in animals killed on or about the sixth day post-infection. Caecal specimens examined by bacteriological culture techniques applicable for enumeration of organisms reveal the presence of high populations of T.hyodysenteriae. This disease-model was used in experiments to compare the efficacy of M139603 with that of salinomycin, lasalocid and monensin in suppressing the infection.\n(§2) In this study, the efficacy of M139603 was tested at 25 ppm feed and that of monensin (Eli Lilly) at 50 or 100 ppm. Groups of infected mice, five per group, were offered the drugs in the feed on five continuous days before killing. Caecal materials were subjected to bacteriological examination to enumerate the populations of viable treponemes per gram of material. […] The group mean in respect of the unmedicated groups was 7.9 cfu/g."}, "T. hyodysenteriae [2]": {"tested_on": "T. hyodysenteriae", "assay": "MIC of M139603 against thirteen T. hyodysenteriae isolates vs salinomycin and dimetridazole (Example 1, Table 1)", "type": "cell-based, Treponema hyodysenteriae", "conditions": "Brachyspira hyodysenteriae", "description": "The minimum inhibitory concentration of M139603 was tested in parallel with dimetridazole (May & Baker) and the growth-promoting polyether antibiotic salinomycin (Hoechst) against thirteen strains of T. hyodysenteriae."}, "T. hyodysenteriae [3]": {"tested_on": "T. hyodysenteriae", "assay": "Comparative efficacy of M139603 and salinomycin in experimentally infected mice (Example 3, Table 3)", "type": "in vivo, mice (strain MF-1)", "conditions": "for Mean (log10) viable treponemes per gram caecum & contents / Viable treponemes per gram caecum & contents: 5 days; for Mean (log10) viable treponemes per gram caecum & contents: group mean; for Viable treponemes per gram caecum & contents: individual mice", "from_the_text": "as §1, §2\nIn this study, the efficacy of M139603 was tested at 30 ppm and that of salinomycin at 30, 40 or 60 ppm feed. The mouse-groups and test-procedureswere simi-ar to those applied under Example 2 above."}, "T. hyodysenteriae [4]": {"tested_on": "T. hyodysenteriae", "assay": "Comparative efficacy of M139603 and lasalocid in experimentally infected mice (Example 4, Table 4)", "type": "in vivo, mice (strain MF-1)", "conditions": "for Mean (log10) viable treponemes per gram caecal contents / Viable treponemes per gram caecal contents: 5 days; for Mean (log10) viable treponemes per gram caecal contents: group mean (table); for Viable treponemes per gram caecal contents: individual mice", "from_the_text": "as §1, §2\nIn this study, the efficacy of M139603 was tested at 20 ppm feed and that of lasalocid (Hoffman la Roche) at 20, 40 and 80 ppm. The test procedures were similar to those above except for the size of the inoculum of T.hyodysenteriae (1.2×10^7 cfu) used in infecting each mouse. […] The mean (log10) counts of viable treponemes found in the caecal contents of the various groups were: 2.5 cfu/g caecum (139603 at 20 ppm), 7.35 cfu (lasalocid at 20 ppm), 7.45 cfu (lasalocid at 40 ppm), 3.81 cfu (lasalocid at 80 ppm) and 8.50 cfu (unmedicated control)."}},
  "note": "Several values for one entry are separate records, joined by “and”; a condition that tells them apart may be missing. Equal entries are not always repeated. Where two headings read alike, the source gives them in different places.",
  "data": [
    {"smiles": "CC[C@@]1([C@@H]2O[C@@H]([C@H]3O[C@@](O)(CO)[C@H](C)C[C@@H]3C)C[C@@H]2C)CC[C@H]([C@]2(C)CC[C@]3(C[C@H](O)[C@@H](C)[C@@H]([C@@H](C)[C@@H](OC)[C@H](C)C(=O)O)O3)O2)O1", "note": "[Monensin, monensin]", "values": [
      {"measurement": "Animals yielding high populations of viable treponema", "setting": "T. hyodysenteriae [1]; 50 ppm feed", "result": "four out of five"},
      {"measurement": "Suppression of infection", "setting": "T. hyodysenteriae [1]; 50 ppm feed", "result": "ineffective"},
      {"measurement": "Mean (log10) viable treponemes per gram caecum & contents", "setting": "T. hyodysenteriae [1]; 50 ppm feed", "result": 5.2, "unit": "log10 per gram"},
      {"measurement": "Viable treponemes per gram caecum & contents", "setting": "T. hyodysenteriae [1]; 50 ppm feed", "result": "1.74 × 10^8 per gram and 2.90 × 10^7 per gram and 1.0 × 10^5 per gram and negative and 2.0 × 10^5 per gram"},
      {"measurement": "Populations of viable treponema (range)", "setting": "T. hyodysenteriae [1]; 50 ppm feed, four of five animals", "result": "1.0×10^5 -1.7×10^8 cfu/g"},
      {"measurement": "Group mean (log10) viable treponema", "setting": "T. hyodysenteriae [1]; 50 ppm feed, log10", "result": 5.2, "unit": "cfu/g caecum"},
      {"measurement": "Suppression of infection", "setting": "T. hyodysenteriae [1]; 100 ppm feed", "result": "suppressed the infection"},
      {"measurement": "Mean (log10) viable treponemes per gram caecum & contents", "setting": "T. hyodysenteriae [1]; 100 ppm feed", "result": 0, "unit": "log10 per gram"},
      {"measurement": "Viable treponemes per gram caecum & contents", "setting": "T. hyodysenteriae [1]; 100 ppm feed, limit of detection <1.0 × 10^2", "result": "negative"}
    ]},
    {"smiles": "Cc1ncc([N+](=O)[O-])n1C", "note": "[Dimetridazole, dimetridazole]", "values": [
      {"measurement": "MIC", "setting": "T. hyodysenteriae [2]; isolate B78, read-out: MIC", "result": 3, "unit": "µg/mL"},
      {"measurement": "MIC", "setting": "T. hyodysenteriae [2]; isolate S82/6, read-out: MIC", "result": 30, "unit": "µg/mL"},
      {"measurement": "MIC", "setting": "T. hyodysenteriae [2]; isolate S82/7, read-out: MIC", "result": 30, "unit": "µg/mL"},
      {"measurement": "MIC", "setting": "T. hyodysenteriae [2]; isolate S83/1, read-out: MIC", "result": 30, "unit": "µg/mL"},
      {"measurement": "MIC", "setting": "T. hyodysenteriae [2]; isolate S83/2, read-out: MIC", "result": 3, "unit": "µg/mL"},
      {"measurement": "MIC", "setting": "T. hyodysenteriae [2]; isolate S83/5, read-out: MIC", "result": 3, "unit": "µg/mL"},
      {"measurement": "MIC", "setting": "T. hyodysenteriae [2]; isolate S85/1, read-out: MIC", "result": 30, "unit": "µg/mL"},
      {"measurement": "MIC", "setting": "T. hyodysenteriae [2]; isolate S85/2, read-out: MIC", "result": 10, "unit": "µg/mL"},
      {"measurement": "MIC", "setting": "T. hyodysenteriae [2]; isolate S85/3, read-out: MIC", "result": 10, "unit": "µg/mL"},
      {"measurement": "MIC", "setting": "T. hyodysenteriae [2]; isolate S85/8, read-out: MIC", "result": 3, "unit": "µg/mL"},
      {"measurement": "MIC", "setting": "T. hyodysenteriae [2]; isolate S85/9, read-out: MIC", "result": 5, "unit": "µg/mL"},
      {"measurement": "MIC", "setting": "T. hyodysenteriae [2]; isolate S86/1, read-out: MIC", "result": "< 0.5", "unit": "µg/mL"},
      {"measurement": "MIC", "setting": "T. hyodysenteriae [2]; isolate S86/2, read-out: MIC", "result": 10, "unit": "µg/mL"},
      {"measurement": "MIC", "setting": "T. hyodysenteriae [2]; mean of 13 strains (table), read-out: Mean MIC", "result": 12.9, "unit": "µg/mL"}
    ]},
    {"smiles": "CC[C@@H](C(=O)[C@@H](C)[C@@H](O)[C@H](C)[C@@H]1O[C@@H]([C@@H](CC)C(=O)O)CC[C@@H]1C)[C@H]1O[C@]2(C=C[C@@H](O)[C@]3(CC[C@@](C)([C@H]4CC[C@](O)(CC)[C@H](C)O4)O3)O2)[C@H](C)C[C@@H]1C", "note": "[Salinomycin, salinomycin]", "values": [
      {"measurement": "Suppression of infection", "setting": "T. hyodysenteriae [3]; 30, 40 or 60 ppm feed", "result": "failed to do so, even at 60 ppm"},
      {"measurement": "Mean (log10) viable treponemes per gram caecum & contents", "setting": "T. hyodysenteriae [3]; 30 ppm feed", "result": 3.86, "unit": "log10 per gram"},
      {"measurement": "Viable treponemes per gram caecum & contents", "setting": "T. hyodysenteriae [3]; 30 ppm feed", "result": "negative and 6.0 × 10^6 per gram and 5.4 × 10^5 per gram"},
      {"measurement": "Mean (log10) viable treponemes per gram caecum & contents", "setting": "T. hyodysenteriae [3]; 40 ppm feed", "result": 6.03, "unit": "log10 per gram"},
      {"measurement": "Viable treponemes per gram caecum & contents", "setting": "T. hyodysenteriae [3]; 40 ppm feed", "result": "6.0 × 10^6 per gram and 1.8 × 10^6 per gram and 1.6 × 10^5 per gram and 4.3 × 10^5 per gram"},
      {"measurement": "Mean (log10) viable treponemes per gram caecum & contents", "setting": "T. hyodysenteriae [3]; 60 ppm feed", "result": 5.52, "unit": "log10 per gram"},
      {"measurement": "Viable treponemes per gram caecum & contents", "setting": "T. hyodysenteriae [3]; 60 ppm feed", "result": "1.3 × 10^7 per gram and 2.0 × 10^4 per gram and 1.0 × 10^6 per gram and 1.0 × 10^4 per gram and 1.5 × 10^6 per gram"},
      {"measurement": "MIC", "setting": "T. hyodysenteriae [2]; isolate B78", "result": 1, "unit": "µg/mL"},
      {"measurement": "MIC", "setting": "T. hyodysenteriae [2]; isolate S82/6", "result": 0.75, "unit": "µg/mL"},
      {"measurement": "MIC", "setting": "T. hyodysenteriae [2]; isolate S82/7", "result": 0.75, "unit": "µg/mL"},
      {"measurement": "MIC", "setting": "T. hyodysenteriae [2]; isolate S83/1", "result": 0.75, "unit": "µg/mL"},
      {"measurement": "MIC", "setting": "T. hyodysenteriae [2]; isolate S83/2", "result": 1, "unit": "µg/mL"},
      {"measurement": "MIC", "setting": "T. hyodysenteriae [2]; isolate S83/5", "result": "< 0.1", "unit": "µg/mL"},
      {"measurement": "MIC", "setting": "T. hyodysenteriae [2]; isolate S85/1", "result": 0.75, "unit": "µg/mL"},
      {"measurement": "MIC", "setting": "T. hyodysenteriae [2]; isolate S85/2", "result": 1, "unit": "µg/mL"},
      {"measurement": "MIC", "setting": "T. hyodysenteriae [2]; isolate S85/3", "result": 0.75, "unit": "µg/mL"},
      {"measurement": "MIC", "setting": "T. hyodysenteriae [2]; isolate S85/8", "result": 0.75, "unit": "µg/mL"},
      {"measurement": "MIC", "setting": "T. hyodysenteriae [2]; isolate S85/9", "result": 0.5, "unit": "µg/mL"},
      {"measurement": "MIC", "setting": "T. hyodysenteriae [2]; isolate S86/1", "result": "< 0.1", "unit": "µg/mL"},
      {"measurement": "MIC", "setting": "T. hyodysenteriae [2]; isolate S86/2", "result": 0.75, "unit": "µg/mL"},
      {"measurement": "MIC", "setting": "T. hyodysenteriae [2]; read-out: Mean MIC, mean of 13 strains (table)", "result": 0.68, "unit": "µg/mL"}
    ]},
    {"smiles": "CC[C@@H](C(=O)[C@@H](C)[C@@H](O)[C@H](C)CCc1ccc(C)c(O)c1C(=O)O)[C@H]1O[C@](CC)([C@H]2CC[C@](O)(CC)[C@H](C)O2)C[C@@H]1C", "note": "[Lasalocid, lasalocid]", "values": [
      {"measurement": "Mean (log10) viable treponemes per gram caecal contents", "setting": "T. hyodysenteriae [4]; 20 ppm feed", "result": 7.35, "unit": "log10 per gram"},
      {"measurement": "Viable treponemes per gram caecal contents", "setting": "T. hyodysenteriae [4]; 20 ppm feed", "result": "3.2 × 10^8 per gram and 1.1 × 10^4 per gram and 2.9 × 10^7 per gram and 1.7 × 10^8 per gram"},
      {"measurement": "Mean (log10) count of viable treponemes in caecal contents", "setting": "T. hyodysenteriae [4]; 20 ppm feed", "result": 7.35, "unit": "cfu/g caecum"},
      {"measurement": "Mean (log10) viable treponemes per gram caecal contents", "setting": "T. hyodysenteriae [4]; 40 ppm feed", "result": 7.45, "unit": "log10 per gram"},
      {"measurement": "Viable treponemes per gram caecal contents", "setting": "T. hyodysenteriae [4]; 40 ppm feed", "result": "3.0 × 10^ 6 per gram and 1.4 × 10^8 per gram and 2.1 × 10^8 per gram and 1.7 × 10^7 per gram and 1.2 × 10^7 per gram"},
      {"measurement": "Mean (log10) count of viable treponemes in caecal contents", "setting": "T. hyodysenteriae [4]; 40 ppm feed", "result": 7.45, "unit": "cfu/g caecum"},
      {"measurement": "Mean (log10) viable treponemes per gram caecal contents", "setting": "T. hyodysenteriae [4]; 80 ppm feed", "result": 3.81, "unit": "log10 per gram"},
      {"measurement": "Viable treponemes per gram caecal contents", "setting": "T. hyodysenteriae [4]; 80 ppm feed", "result": "4.0 × 10^4 per gram and 0 per gram and 1.0 × 10^6 per gram and 1.3 × 10^5 per gram and 2.3 × 10^3 per gram"},
      {"measurement": "Mean (log10) count of viable treponemes in caecal contents", "setting": "T. hyodysenteriae [4]; 80 ppm feed", "result": 3.81, "unit": "cfu/g caecum"}
    ]}
  ]
}
